Data from US20080226714A1, “SUSTAINED-RELEASE TABLET FORMULATIONS OF PIPERAZINE-PIPERIDINE ANTAGONISTS AND AGONISTS OF THE 5-HT1A RECEPTOR HAVING ENHANCED INTESTINAL DISSOLUTION” (WYETH, priority 2007, published 2008).
≈ marks a conversion by molar mass, not a printed value. Where two headings read alike, the source gives them in different places.

Columns and labels:
physchem = type: physicochemical
Source text: (§1) Pharmaceutical compounds that interact with the 5-HT1A receptor are useful to treat a wide variety of central nervous system disorders, such as cognition disorders, anxiety disorders, and depression. Certain piperazine-piperidine compounds have shown utility as 5-HT1A receptor antagonists, agonists and partial antagonist/agonists. See, for example, U.S. Patent Publication No. 2007/0027160, filed Jun. 9, 2006, entitled “piperazine-Piperidine Antagonists And Agonists Of The 5-HT1A Receptor”. […] During development of 5-fluoro-8-{4-[4-(6-methoxyquinolin-8-yl)piperazin-1-yl]piperidin-1-yl}quinoline, it was discovered that the compound has a pH-dependent solubility. […] Therefore, the rate of systemic input of 5-fluoro-8-{4-[4-(6-methoxyquinolin-8-yl)piperazin-1-yl]piperidin-1-yl}quinoline will be dependent on the dissolution or solubilization of the compound. […] A controlled-release formulation to reduce the dose frequency of 5-fluoro-8-{4-[4-(6-methoxyquinolin-8-yl)piperazin-1-yl]piperidin-1-yl}quinoline would be beneficial for improving compliance and convenience. However, this type of formulation presents the challenge of maintaining the dissolution of the compound in the lower gastrointestinal tract where solubility is very low.

[1] = Permeability characteristics in animal studies; type: in vivo
Source text: as §1

[2] = Preclinical half-life after IV bolus; type: in vivo; details: Sprague-Dawley rats, 0.3 mg/kg IV bolus
Source text: See, for example, U.S. Patent Publication No. 2007/0027160, filed Jun. 9, 2006, entitled “piperazine-Piperidine Antagonists And Agonists Of The 5-HT1A Receptor”.

solubility (physchem; trisuccinate salt, pH greater than about six) | solubility (physchem; water, trisuccinate salt, aqueous, read-out: aqueous solubility) | solubility (physchem; free base, water, read-out: water solubility) | solubility (physchem; pH 2.4, aqueous buffer, pH about 2.4, read-out: solubility) | solubility (physchem; pH 6, aqueous buffer, pH levels greater than about 6, read-out: solubility) | solubility (physchem; pH 8.9, aqueous buffer, pH about 8.9, read-out: solubility) | permeability [1] | t1/2 [2] | SMILES
sub-microgram per milliliter level | ~1000 µg/mL | – | – | – | – | – | – | COc1cc(N2CCN(C3CCN(c4ccc(F)c5cccnc45)CC3)CC2)c2ncccc2c1.O=C(O)CCC(=O)O.O=C(O)CCC(=O)O.O=C(O)CCC(=O)O [5-fluoro-8-{4-[4-(6-methoxyquinolin-8-yl)piperazin-1-yl]piperidin-1-yl}quinoline trisuccinate]
– | – | ~0.04 µg/mL (≈ 0.0848 µM) | ~2200 µg/mL (≈ 4670 µM) | < 1 µg/mL | ~0.036 µg/mL (≈ 0.0763 µM) | high permeability | about one | COc1cc(N2CCN(C3CCN(c4ccc(F)c5cccnc45)CC3)CC2)c2ncccc2c1 [5-fluoro-8-{4-[4-(6-methoxyquinolin-8-yl)piperazin-1-yl]piperidin-1-yl}quinoline]
